Like-named read-outs stand apart in the source and are kept apart here.

12 molecules from US9499550B2 (BRISTOL-MYERS SQUIBB COMPANY, priority 2012, dated 2016) can be followed below.

Assay [1] has as its system HCV genotype 1a (H77 strain) replicon in HUH-7 cells. Description: HCV replicon luciferase reporter assay, genotype 1a. It is filed as cell-based. The following applies: Hepatitis C virus, Huh-7, 72 h, HCV genotype 1a replicon luciferase, 3 days incubation. The essentials:
(§1)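 Replicon inhibition for both genotypes was measured as Renilla luciferase signal (EnduRen, 7.5 μM final, 2 h) after 3-day, 37° C exposure of replicon-bearing HUH-7 cells in 4% FCS DMEM, 0.5% DMSO. The 1b construct carries S1179I; the 1a H77 construct carries P1496L and S2204I. Twenty-point, 3-fold dilutions were fitted four-parametrically for EC50, and CC50 was taken from multiplexed Cell Titer-Blue.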

Assay [2] has as its system HCV genotype 1b (Con1) replicon in HUH-7 cells. Kind of assay: HCV replicon luciferase reporter assay, genotype 1b. The following applies: Hepatitis C virus, Huh-7, 72 h, HCV genotype 1b replicon luciferase, 3 days incubation. It is filed as cell-based. The essentials: as §1
In general terms: A replicon is a self-replicating genome or part of one, used to study replication in cells.

The EC50 is the concentration that produces a half-maximal response. As for `COc1cc2ccnc(O[C@@H]3C[C@H]4C(=O)N[C@]5(C(=O)NS(=O)(=O)C6CC6)C[C@H]5/C=C\CC[C@@H](C)C[C@@H](C)[C@H](NC(=O)OC(C)(C)C(F)(F)F)C(=O)N4C3)c2cc1OC` [Compound 5387, 1,1,1-trifluoro-2-methylpropan-2-yl((2R,6S,7R,9R,13aS,14aR,16aS,Z)-14a-((cyclopropylsulfonyl)carbamoyl)-2-((6,7-dimethoxyisoquinolin-1-yl)oxy)-7,9-dimethyl-5,16-dioxo-1,2,3,5,6,7,8,9,10,11,13a,14,14a,15,16,16a-hexadecahydrocyclopropa[e]pyrrolo[1,2-a][1,4]diazacyclopentadecin-6-yl)carbamate], the EC50 is 1.01 to 5 nM in assay [1] (read-out: LE_1a (EC50, range)) and 1.01 to 5 nM in assay [2] (read-out: LE_1b (EC50, range)).
For `COc1cc2ccnc(O[C@@H]3C[C@H]4C(=O)N[C@]5(C(=O)NS(=O)(=O)C6CC6)C[C@H]5/C=C\CC[C@@H](C)C[C@@H](C)[C@H](NC(=O)OC(C)(C)C(C)(F)F)C(=O)N4C3)c2cc1OC` [Compound 5389, 3,3-difluoro-2-methylbutan-2-yl((2R,6S,7R,9R,13aS,14aR,16aS,Z)-14a-((cyclopropylsulfonyl)carbamoyl)-2-((6,7-dimethoxyisoquinolin-1-yl)oxy)-7,9-dimethyl-5,16-dioxo-1,2,3,5,6,7,8,9,10,11,13a,14,14a,15,16,16a-hexadecahydrocyclopropa[e]pyrrolo[1,2-a][1,4]diazacyclopentadecin-6-yl)carbamate], the EC50 was in the range of 1.01 to 5 nM in assay [1] (read-out: LE_1a (EC50, range)) and 1.01 to 5 nM in assay [2] (read-out: LE_1b (EC50, range)).
`COc1cc2ccnc(O[C@@H]3C[C@H]4C(=O)N[C@]5(C(=O)NS(=O)(=O)C6CC6)C[C@H]5/C=C\CC[C@@H](C)C[C@@H](C)[C@H](NC(=O)OC(C)(C)C)C(=O)N4C3)c2cc1OC` [Compound 5391, tert-butyl ((2R,6S,7R,9R,13aS,14aR,16aS,Z)-14a-((cyclopropylsulfonyl)carbamoyl)-2-((6,7-dimethoxyisoquinolin-1-yl)oxy)-7,9-dimethyl-5,16-dioxo-1,2,3,5,6,7,8,9,10,11,13a,14,14a,15,16,16a-hexadecahydrocyclopropa[e]pyrrolo[1,2-a][1,4]diazacyclopentadecin-6-yl)carbamate]: the EC50 lay within 1.01 to 5 nM in assay [1] (read-out: LE_1a (EC50, range)) and 1.01 to 5 nM in assay [2] (read-out: LE_1b (EC50, range)).
In the case of `CCOc1cc2ccnc(O[C@@H]3C[C@H]4C(=O)N[C@]5(C(=O)NS(=O)(=O)C6(C)CC6)C[C@H]5/C=C\CC[C@@H](C)C[C@@H](C)[C@H](NC(=O)OC(C)(C)C)C(=O)N4C3)c2cc1F` [Compound 5393, tert-butyl ((2R,6S,7R,9R,13aS,14aR,16aS,Z)-2-((6-ethoxy-7-fluoroisoquinolin-1-yl)oxy)-7,9-dimethyl-14a-(((1-methylcyclopropyl)sulfonyl)carbamoyl)-5,16-dioxo-1,2,3,5,6,7,8,9,10,11,13a,14,14a,15,16,16a-hexadecahydrocyclopropa[e]pyrrolo[1,2-a][1,4]diazacyclopentadecin-6-yl)carbamate], the EC50 in assay [1] (read-out: LE_1a (EC50)) is 0.92 nM; in assay [1] (read-out: LE_1a (EC50, range)), 0.51 to 1 nM; in assay [2] (read-out: LE_1b (EC50)), 0.55 nM; in assay [2] (read-out: LE_1b (EC50, range)) it was 0.51 to 1 nM.
As to `CCOc1cc2ccnc(O[C@@H]3C[C@H]4C(=O)N[C@]5(C(=O)NS(=O)(=O)C6(C)CC6)C[C@H]5/C=C\CC[C@@H](C)C[C@@H](C)[C@H](NC(=O)OC(C)(C)C(F)(F)F)C(=O)N4C3)c2cc1F` [Compound 5395, 1,1,1-trifluoro-2-methylpropan-2-yl((2R,6S,7R,9R,13aS,14aR,16aS,Z)-2-((6-ethoxy-7-fluoroisoquinolin-1-yl)oxy)-7,9-dimethyl-14a-(((1-methylcyclopropyl)sulfonyl)carbamoyl)-5,16-dioxo-1,2,3,5,6,7,8,9,10,11,13a,14,14a,15,16,16a-hexadecahydrocyclopropa[e]pyrrolo[1,2-a][1,4]diazacyclopentadecin-6-yl)carbamate], the concentration giving a half-maximal response (EC50) was in the range of 1.01 to 5 nM in assay [1] (read-out: LE_1a (EC50, range)) and 0.51 to 1 nM in assay [2] (read-out: LE_1b (EC50, range)).
Regarding `CCOc1cc2ccnc(O[C@@H]3C[C@H]4C(=O)N[C@]5(C(=O)NS(=O)(=O)C6(C)CC6)C[C@H]5/C=C\CC[C@@H](C)C[C@@H](C)[C@H](NC(=O)OC(C)(C)C(C)(F)F)C(=O)N4C3)c2cc1F` [Compound 5397, 3,3-difluoro-2-methylbutan-2-yl((2R,6S,7R,9R,13aS,14aR,16aS,Z)-2-((6-ethoxy-7-fluoroisoquinolin-1-yl)oxy)-7,9-dimethyl-14a-(((1-methylcyclopropyl)sulfonyl)carbamoyl)-5,16-dioxo-1,2,3,5,6,7,8,9,10,11,13a,14,14a,15,16,16a-hexadecahydrocyclopropa[e]pyrrolo[1,2-a][1,4]diazacyclopentadecin-6-yl)carbamate], the concentration for a half-maximal effect (EC50) in assay [1] (read-out: LE_1a (EC50, range)) was 1.01 to 5 nM; in assay [2] (read-out: LE_1b (EC50, range)) it was 0.51 to 1 nM.
On to `CCOc1cc2ccnc(O[C@@H]3C[C@H]4C(=O)N[C@]5(C(=O)NS(=O)(=O)C6CC6)C[C@H]5/C=C\CC[C@@H](C)C[C@@H](C)[C@H](NC(=O)OC(C)(C)C)C(=O)N4C3)c2cc1F` [Compound 5399, tert-butyl ((2R,6S,7R,9R,13aS,14aR,16aS,Z)-14a-((cyclopropylsulfonyl)carbamoyl)-2-((6-ethoxy-7-fluoroisoquinolin-1-yl)oxy)-7,9-dimethyl-5,16-dioxo-1,2,3,5,6,7,8,9,10,11,13a,14,14a,15,16,16a-hexadecahydrocyclopropa[e]pyrrolo[1,2-a][1,4]diazacyclopentadecin-6-yl)carbamate], for which the concentration for a half-maximal effect (EC50) in assay [1] (read-out: LE_1a (EC50, range)) is 0.51 to 1 nM; in assay [2] (read-out: LE_1b (EC50, range)), 0.1 to 0.5 nM.
Turning to `CCOc1cc2ccnc(O[C@@H]3C[C@H]4C(=O)N[C@]5(C(=O)NS(=O)(=O)C6CC6)C[C@H]5/C=C\CC[C@@H](C)C[C@@H](C)[C@H](NC(=O)OC(C)(C)C(F)(F)F)C(=O)N4C3)c2cc1F` [Compound 5401, 1,1,1-trifluoro-2-methylpropan-2-yl((2R,6S,7R,9R,13aS,14aR,16aS,Z)-14a-((cyclopropylsulfonyl)carbamoyl)-2-((6-ethoxy-7-fluoroisoquinolin-1-yl)oxy)-7,9-dimethyl-5,16-dioxo-1,2,3,5,6,7,8,9,10,11,13a,14,14a,15,16,16a-hexadecahydrocyclopropa[e]pyrrolo[1,2-a][1,4]diazacyclopentadecin-6-yl)carbamate], the concentration for a half-maximal effect (EC50) in assay [1] (read-out: LE_1a (EC50, range)) lay within 1.01 to 5 nM; in assay [2] (read-out: LE_1b (EC50, range)) it was 0.1 to 0.5 nM.
On the same counts, the results for `CCOc1cc2ccnc(O[C@@H]3C[C@H]4C(=O)N[C@]5(C(=O)NS(=O)(=O)C6CC6)C[C@H]5/C=C\CC[C@@H](C)C[C@@H](C)[C@H](NC(=O)OC(C)(C)C(C)(F)F)C(=O)N4C3)c2cc1F` [Compound 5403, 3,3-difluoro-2-methylbutan-2-yl((2R,6S,7R,9R,13aS,14aR,16aS,Z)-14a-((cyclopropylsulfonyl)carbamoyl)-2-((6-ethoxy-7-fluoroisoquinolin-1-yl)oxy)-7,9-dimethyl-5,16-dioxo-1,2,3,5,6,7,8,9,10,11,13a,14,14a,15,16,16a-hexadecahydrocyclopropa[e]pyrrolo[1,2-a][1,4]diazacyclopentadecin-6-yl)carbamate] are 0.51 to 1 nM and 0.1 to 0.5 nM.
On the same counts, the results for `CCOc1cc2ccnc(O[C@@H]3C[C@H]4C(=O)N[C@]5(C(=O)NS(=O)(=O)C6CC6)C[C@H]5/C=C\CC[C@@H](C)C[C@@H](CC)[C@H](NC(=O)OC(C)(C)C)C(=O)N4C3)c2cc1F` [Compound 5405, tert-butyl ((2R,6S,7R,9R,13aS,14aR,16aS,Z)-14a-((cyclopropylsulfonyl)carbamoyl)-2-((6-ethoxy-7-fluoroisoquinolin-1-yl)oxy)-7-ethyl-9-methyl-5,16-dioxo-1,2,3,5,6,7,8,9,10,11,13a,14,14a,15,16,16a-hexadecahydrocyclopropa[e]pyrrolo[1,2-a][1,4]diazacyclopentadecin-6-yl)carbamate] are 1.01 to 5 nM and 0.51 to 1 nM.
On the same counts, the results for `CCOc1cc2ccnc(O[C@@H]3C[C@H]4C(=O)N[C@]5(C(=O)NS(=O)(=O)C6CC6)C[C@H]5/C=C\CC[C@@H](C)C[C@@H](CC)[C@H](NC(=O)OC(C)(C)C(F)(F)F)C(=O)N4C3)c2cc1F` [Compound 5407, 1,1,1-trifluoro-2-methylpropan-2-yl((2R,6S,7R,9R,13aS,14aR,16aS,Z)-14a-((cyclopropylsulfonyl)carbamoyl)-2-((6-ethoxy-7-fluoroisoquinolin-1-yl)oxy)-7-ethyl-9-methyl-5,16-dioxo-1,2,3,5,6,7,8,9,10,11,13a,14,14a,15,16,16a-hexadecahydrocyclopropa[e]pyrrolo[1,2-a][1,4]diazacyclopentadecin-6-yl)carbamate] are 1.01 to 5 nM and 0.51 to 1 nM.
For the molecule `CCOc1cc2ccnc(O[C@@H]3C[C@H]4C(=O)N[C@]5(C(=O)NS(=O)(=O)C6CC6)C[C@H]5/C=C\CC[C@@H](C)C[C@@H](CC)[C@H](NC(=O)OC(C)(C)C(C)(F)F)C(=O)N4C3)c2cc1F` [Compound 5409, 3,3-difluoro-2-methylbutan-2-yl((2R,6S,7R,9R,13aS,14aR,16aS,Z)-14a-((cyclopropylsulfonyl)carbamoyl)-2-((6-ethoxy-7-fluoroisoquinolin-1-yl)oxy)-7-ethyl-9-methyl-5,16-dioxo-1,2,3,5,6,7,8,9,10,11,13a,14,14a,15,16,16a-hexadecahydrocyclopropa[e]pyrrolo[1,2-a][1,4]diazacyclopentadecin-6-yl)carbamate], the EC50 in assay [1] (read-out: LE_1a (EC50, range)) is 1.01 to 5 nM; in assay [2] (read-out: LE_1b (EC50, range)), 0.51 to 1 nM.
